Assay results from paper PMC2631625 (Bioorganic & medicinal chemistry letters, 2008).

Molecular target: CB1 receptors (Rattus norvegicus, UniProt P20272)
Test: Inhibition of [3H]SR141716 binding in homogenates of rat cerebellum
Settings: [3H]SR141716 radioligand

Sequence of CB1 receptors (P20272 whole entry): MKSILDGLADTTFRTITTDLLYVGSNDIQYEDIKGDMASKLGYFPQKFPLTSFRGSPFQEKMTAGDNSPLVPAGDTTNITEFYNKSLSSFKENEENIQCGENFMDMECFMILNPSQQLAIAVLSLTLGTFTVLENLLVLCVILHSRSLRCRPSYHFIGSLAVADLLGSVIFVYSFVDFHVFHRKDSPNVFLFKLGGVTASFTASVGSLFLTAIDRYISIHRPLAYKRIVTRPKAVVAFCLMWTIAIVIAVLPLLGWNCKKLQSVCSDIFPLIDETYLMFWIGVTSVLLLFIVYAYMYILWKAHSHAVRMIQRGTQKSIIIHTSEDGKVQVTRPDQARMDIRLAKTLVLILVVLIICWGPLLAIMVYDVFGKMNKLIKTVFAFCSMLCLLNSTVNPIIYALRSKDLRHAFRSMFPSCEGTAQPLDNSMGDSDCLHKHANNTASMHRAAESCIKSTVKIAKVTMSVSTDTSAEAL

**Q.** With Clc1ccc(-c2cnnn2-c2ccc(Cl)cc2Cl)cc1 [Compound 7b] as the molecule, how does the “binding affinity at CB1 receptors (in words)” value (“binding affinity” for short) read?
**A.** low affinity

**Q.** Which “binding affinity” value does the source give for O=C(OCc1ccccc1)c1nnn(-c2ccc(Cl)cc2Cl)c1-c1ccc(Cl)cc1 [Compound 15] here?
**A.** somewhat diminished

**Q.** With Clc1ccc(-c2cnnn2-c2ccc(Cl)cc2)cc1 [Compound 7a] as the molecule, how does the “binding affinity” value read?
**A.** low affinity

**Q.** O=C(NN1CCCCC1)c1nnn(-c2ccc(Cl)cc2)c1-c1ccc(Cl)cc1 [Compound 9] was tested. Which “binding affinity” value did it give?
**A.** low affinity
